This note sets out measurements from patent US11180504B2 (ORCHID PHARMA LTD., priority 2016, dated 2021).

For test [1], the system named is methicillin-sensitive Staphylococcus aureus. Nature of the test: MIC by broth micro-dilution (CLSI), methicillin-sensitive S. aureus. Format: cell-based. The following applies: MSSA S. aureus ATCC29213. On the technique in general: In broth dilution the organism is exposed to a series of concentrations in liquid medium.
Test [2] relates to carbapenem sensitive Escherichia coli. Put plainly: MIC by broth micro-dilution (CLSI), carbapenem sensitive E. coli. Format: cell-based.
Test [3] has as its system carbapenemase producing K. pneumoniae. Nature of the test: MIC by broth micro-dilution (CLSI), carbapenemase producing K. pneumoniae. In kind it is cell-based, Klebsiella pneumoniae.
In test [4] the test system is carbapenem sensitive Pseudomonas aeruginosa. Put plainly: MIC by broth micro-dilution (CLSI), carbapenem sensitive P. aeruginosa. Format: cell-based.
Setting [5] is: Staphylococcus aureus, ATCC 29213 / MSSA, read-out: MIC.
The mark [6] stands for this setting: Escherichia coli, ATCC25922, ESBL −ve E. coli ATCC25922, read-out: MIC.
[7] abbreviates: Klebsiella pneumoniae, ATCCBAA1705, KPC-2 K. pneumoniae ATCC BAA-1705, read-out: MIC.
[8] abbreviates: Pseudomonas aeruginosa, ATCC27853, Meropenem susceptible P. aeruginosa ATCC27853, read-out: MIC.
The mark [9] stands for this setting: KPC-2 K. pneumoniae ATCC BAA-1705.
Setting [10] is: Meropenem susceptible P. aeruginosa ATCC27853.

Values after ≈ are worked out from the molar mass of the structure shown. Read-outs that look alike come from different tables or passages of the source.

In general, MIC refers to the lowest concentration that inhibits growth of the organism. `C[C@@H](NC(=O)Cn1cnnn1)[C@H]1C(=O)N2C(C(=O)O)=C(S[C@@H]3CN[C@H](CNC(=N)N)C3)[C@H](C)[C@H]12` [Example 589, (4R,5S,6R)-6-((R)-1-(2-(1H-tetrazol-1-yl)acetamido)ethyl)-3-((3S,5S)-5-(guanidinomethyl)pyrrolidin-3-ylthio)-4-methyl-7-oxo-1-azabicyclo[3.2.0]hept-2-ene-2-carboxylic acid]: the MIC in test [1] (setting [5]) worked out at 4 µg/mL (≈ 8.12 µM); in test [2] (setting [6]), 0.5 µg/mL (≈ 1.02 µM); in test [3] (setting [7]) it was 2 µg/mL (≈ 4.06 µM); in test [4] (setting [8]) it was 16 µg/mL (≈ 32.5 µM).

`C[C@@H](NC(=O)CCn1cnnn1)[C@H]1C(=O)N2C(C(=O)O)=C(S[C@@H]3CN[C@H](C(=O)N4CC[C@@H](N)C4)C3)[C@H](C)[C@H]12` [Example 369, (4R,5S,6R)-6-((R)-1-(3-(1H-tetrazol-1-yl)propanamido)ethyl)-3-((3S,5S)-5-((R)-3-aminopyrrolidine-1-carbonyl)pyrrolidin-3-ylthio)-4-methy-7-oxo-1-azabicyclo[3.2.0]hept-2-ene-2-carboxylic acid]: the MIC in test [1] (setting [5]) turned out to be 2 µg/mL (≈ 3.65 µM); in test [2] (setting [6]) it was 0.25 µg/mL (≈ 0.457 µM); in test [3] (setting [7]), 8 µg/mL (≈ 14.6 µM); in test [4] (setting [8]) it was 16 µg/mL (≈ 29.2 µM).

Take `C[C@@H](NC(=O)Cn1cnnn1)[C@H]1C(=O)N2C(C(=O)O)=C(S[C@@H]3CN[C@H](C(=O)N4CCN(C5CNC5)CC4)C3)[C@H](C)[C@H]12` [Example 408, (4R,5S,6R)-6-((R)-1-(2-(1H-tetrazol-1-yl)acetamido)ethyl)-3-((3S,5S)-5-(4-(azetidin-3-yl)piperazine-1-carbonyl)pyrrolidin-3-ylthio)-4-methyl-7-oxo-1-azabicyclo[3.2.0]hept-2-ene-2-carboxylic acid]: the MIC in test [1] (setting [5]) was 4 µg/mL (≈ 6.79 µM); in test [2] (setting [6]), 1 µg/mL (≈ 1.7 µM); in test [3] (setting [7]), 2 µg/mL (≈ 3.4 µM); in test [4] (setting [8]) it was 2 µg/mL (≈ 3.4 µM).

As to `C[C@@H](NC(=O)Cn1cnnn1)[C@H]1C(=O)N2C(C(=O)O)=C(S[C@@H]3CN[C@H](C(=O)N4CCC(C(=O)N5CC[C@@H](N)C5)CC4)C3)[C@H](C)[C@H]12` [Example 428, (4R,5S,6R)-6-((R)-1-(2-(1H-tetrazol-1-yl)acetamido)ethyl)-3-((3S,5S)-5-(4-((R)-3-aminopyrrolidine-1-carbonyl)piperidine-1-carbonyl)pyrrolidin-3-ylthio)-4-methyl-7-oxo-1-azabicyclo[3.2.0]hept-2-ene-2-carboxylic acid], the MIC was 4 µg/mL (≈ 6.2 µM) in test [1] (setting [5]), 0.5 µg/mL (≈ 0.775 µM) in test [2] (setting [6]), 4 µg/mL (≈ 6.2 µM) in test [3] (setting [7]) and 2 µg/mL (≈ 3.1 µM) in test [4] (setting [8]).

Regarding `C[C@@H](NC(=O)Cn1cnnn1)[C@H]1C(=O)N2C(C(=O)O)=C(S[C@@H]3CN[C@H](C(=O)N4CC5CCNC5(CO)C4)C3)[C@H](C)[C@H]12` (single isomer, unassigned) [Example 556], the MIC in test [1] came to 2 µg/mL (≈ 3.39 µM); in test [2] (ESBL −ve E. coli ATCC25922) it was 0.125 µg/mL (≈ 0.212 µM); in test [3] (setting [9]), 1 µg/mL (≈ 1.7 µM); in test [4] (setting [10]), 4 µg/mL (≈ 6.78 µM).

Regarding `C[C@@H](NC(=O)Cn1cnnn1)[C@H]1C(=O)N2C(C(=O)O)=C(S[C@@H]3CN[C@H](C(=O)N4CCC5CN(CCN)CCC54)C3)[C@H](C)[C@H]12` (stereo partly drawn) [Example 489, (4R,5S,6R)-6-((R)-1-(2-(1H-tetrazol-1-yl)acetamido)ethyl)-3-((3S,5S)-5-(5-(2-aminoethyl)octahydro-1H-pyrrolo[3,2-c]pyridine-1-carbonyl)pyrrolidin-3-ylthio)-4-methyl-7-oxo-1-azabicyclo[3.2.0]hept-2-ene-2-carboxylic acid], the MIC in test [1] (setting [5]) was determined as 4 µg/mL (≈ 6.49 µM); in test [2] (setting [6]), 0.5 µg/mL (≈ 0.811 µM); in test [3] (setting [7]), 1 µg/mL (≈ 1.62 µM); in test [4] (setting [8]), 16 µg/mL (≈ 25.9 µM).

Turning to `CNCC(=O)N[C@H](C)[C@H]1C(=O)N2C(C(=O)O)=C(S[C@@H]3CN[C@H](C(=O)N4C[C@@H](N)[C@H](O)C4)C3)[C@H](C)[C@H]12` [Example 297], the MIC in test [1] (setting [5]) came to 16 µg/mL (≈ 31.3 µM); in test [2] (setting [6]) it was 1 µg/mL (≈ 1.96 µM); in test [3] (setting [7]), 2 µg/mL (≈ 3.92 µM); in test [4] (setting [8]), 4 µg/mL (≈ 7.83 µM).

Take `C[C@@H](NC(=O)Cn1cnnn1)[C@H]1C(=O)N2C(C(=O)[O-])=C(Sc3cn(C[C@@H]4CCNC4)[n+](C)c3)[C@H](C)[C@H]12` [Example 597, (4R,5S,6R)-6-((R)-1-(2-(1H-tetrazol-1-yl)acetamido)ethyl)-4-methyl-3-(2-methyl-1-((R)-pyrrolidin-3-ylmethyl)-1H-pyrazol-2-ium-4-ylthio)-7-oxo-1-azabicyclo[3.2.0]hept-2-ene-2-carboxylate]: the MIC in test [1] (setting [5]) was found to be 4 µg/mL (≈ 7.76 µM); in test [2] (setting [6]) it was 4 µg/mL (≈ 7.76 µM); in test [3] (setting [7]), 32 µg/mL (≈ 62.1 µM); in test [4] (setting [8]), 32 µg/mL (≈ 62.1 µM).

Regarding `C[C@@H](NC(=O)Cn1cnnn1)[C@H]1C(=O)N2C(C(=O)O)=C(S[C@@H]3CN[C@H](C(=O)N4CC5CCN(CCN)C5C4)C3)[C@H](C)[C@H]12` (single isomer, unassigned) [Example 578], the MIC in test [1] (setting [5]) was found to be 2 µg/mL (≈ 3.32 µM); in test [2] (setting [6]), 0.25 µg/mL (≈ 0.415 µM); in test [3] (setting [7]), 1 µg/mL (≈ 1.66 µM); in test [4] (setting [8]), 4 µg/mL (≈ 6.64 µM).

Take `C[C@@H](NC(=O)C(F)F)[C@H]1C(=O)N2C(C(=O)O)=C(S[C@@H]3CN[C@H](CNC(=O)[C@H]4CC[C@@H](N)C4)C3)[C@H](C)[C@H]12` [Example 258]: the MIC in test [1] (setting [5]) came out at 1 µg/mL (≈ 1.89 µM); in test [2] (setting [6]), 4 µg/mL (≈ 7.55 µM); in test [3] (setting [7]), 16 µg/mL (≈ 30.2 µM); in test [4] (setting [8]), 128 µg/mL (≈ 242 µM).

Consider `C[C@@H](NC(=O)C(F)F)[C@H]1C(=O)N2C(C(=O)O)=C(S[C@@H]3CN[C@H](C(=O)C4C[C@@H](N)C[C@H]4CF)C3)[C@H](C)[C@H]12` (stereo partly drawn) [Example 251], for which the MIC in test [1] (setting [5]) turned out to be 0.5 µg/mL (≈ 0.939 µM); in test [2] (setting [6]), 0.25 µg/mL (≈ 0.469 µM); in test [3] (setting [7]), 0.5 µg/mL (≈ 0.939 µM); in test [4] (setting [8]), 32 µg/mL (≈ 60.1 µM).

As for `C[C@@H](NC(=O)Cn1cnnn1)[C@H]1C(=O)N2C(C(=O)O)=C(S[C@@H]3CN[C@H](C(=O)N4CCN(C[C@H](O)CN)CC4)C3)[C@H](C)[C@H]12` [Example 450, (4R,5S,6R)-6-((R)-1-(2-(1H-tetrazol-1-yl)acetamido)ethyl)-3-((3S,5S)-5-(4-((R)-3-amino-2-hydroxypropyl)piperazine-1-carbonyl)pyrrolidin-3-ylthio)-4-methyl-7-oxo-1-azabicyclo[3.2.0]hept-2-ene-2-carboxylic acid], the MIC amounted to 8 µg/mL (≈ 13.2 µM) in test [1] (setting [5]), 0.25 µg/mL (≈ 0.412 µM) in test [2] (setting [6]), 1 µg/mL (≈ 1.65 µM) in test [3] (setting [7]) and 1 µg/mL (≈ 1.65 µM) in test [4] (setting [8]).

For `C[C@@H](NC(=O)Cn1cnnn1)[C@H]1C(=O)N2C(C(=O)O)=C(S[C@@H]3CN[C@H](C(=O)N4CCC(CO)CC4)C3)[C@H](C)[C@H]12` [Example 423, (4R,5S,6R)-6-((R)-1-(2-(1H-tetrazol-1-yl)acetamido)ethyl)-3-((3S,5S)-5-(4-(hydroxymethyl)piperidine-1-carbonyl)pyrrolidin-3-ylthio)-4-methyl-7-oxo-1-azabicyclo[3.2.0]hept-2-ene-2-carboxylic acid], the MIC in test [1] (setting [5]) was determined as 8 µg/mL (≈ 14.2 µM); in test [2] (setting [6]), 0.5 µg/mL (≈ 0.889 µM); in test [3] (setting [7]), 2 µg/mL (≈ 3.55 µM); in test [4] (setting [8]) it was 32 µg/mL (≈ 56.9 µM).

As to `C[C@@H](NC(=O)Cn1cnnn1)[C@H]1C(=O)N2C(C(=O)O)=C(S[C@@H]3CN[C@H](C(=O)N4CC5CCNCC5C4)C3)[C@H](C)[C@H]12` (single isomer, unassigned) [Example 528], the MIC in test [1] turned out to be 4 µg/mL (≈ 6.97 µM); in test [2] (ESBL −ve E. coli ATCC25922), 0.25 µg/mL (≈ 0.436 µM); in test [3] (setting [9]), 1 µg/mL (≈ 1.74 µM); in test [4] (setting [10]), 1 µg/mL (≈ 1.74 µM).

Consider `C[C@@H](NC(=O)Cn1cnnn1)[C@H]1C(=O)N2C(C(=O)O)=C(S[C@@H]3CN[C@H](C(=O)N4C[C@@H](F)[C@@H](N)C4)C3)[C@H](C)[C@H]12` [Example 498, (4R,5S,6R)-6-((R)-1-(2-(1H-tetrazol-1-yl)acetamido)ethyl)-3-((3S,5S)-5-((3S,4R)-3-amino-4-fluoropyrrolidine-1-carbonyl)pyrrolidin-3-ylthio)-4-methyl-7-oxo-1-azabicyclo[3.2.0]hept-2-ene-2-carboxylic acid], for which the MIC in test [1] (setting [5]) turned out to be 2 µg/mL (≈ 3.63 µM); in test [2] (setting [6]) it was 0.125 µg/mL (≈ 0.227 µM); in test [3] (setting [7]), 2 µg/mL (≈ 3.63 µM); in test [4] (setting [8]) it was 8 µg/mL (≈ 14.5 µM).

With `C[C@@H](NC(=O)Cn1cnnn1)[C@H]1C(=O)N2C(C(=O)O)=C(S[C@@H]3CN[C@H](C(=O)N4CCC5CNCC5C4)C3)[C@H](C)[C@H]12` (single isomer, unassigned) [Example 533], the MIC came to 4 µg/mL (≈ 6.97 µM) in test [1] (Staphylococcus aureus, ATCC29213|MSSA, read-out: MIC); 0.25 µg/mL (≈ 0.436 µM) in test [2] (setting [6]); 2 µg/mL (≈ 3.49 µM) in test [3] (setting [7]); 2 µg/mL (≈ 3.49 µM) in test [4] (setting [8]).

Turning to `C[C@@H](NC(=O)Cn1cnnn1)[C@H]1C(=O)N2C(C(=O)O)=C(S[C@@H]3CN[C@H](C(=O)N4CCC5(CCN5)CC4)C3)[C@H](C)[C@H]12` [Example 365, (4R,5S,6R)-3-((3S,5S)-5-(1,7-diazaspiro[3.5]nonane-7-carbonyl)pyrrolidin-3-ylthio)-6-((R)-1-(2-(1H-tetrazol-1-yl)acetamido)ethyl)-4-methyl-7-oxo-1-azabicyclo[3.2.0]hept-2-ene-2-carboxylic acid], the MIC in test [1] (setting [5]) came out at 4 µg/mL (≈ 6.97 µM); in test [2] (setting [6]) it was 0.25 µg/mL (≈ 0.436 µM); in test [3] (setting [7]) it was 2 µg/mL (≈ 3.49 µM); in test [4] (setting [8]), 2 µg/mL (≈ 3.49 µM).

Regarding `CNCC(=O)N[C@H](C)[C@H]1C(=O)N2C(C(=O)O)=C(SC[C@H](N)C(=O)N3CC[C@@H](N)C3)[C@H](C)[C@H]12` [Example 273], the MIC in test [1] (setting [5]) turned out to be 128 µg/mL (≈ 273 µM); in test [2] (setting [6]), 16 µg/mL (≈ 34.1 µM); in test [3] (setting [7]), 32 µg/mL (≈ 68.3 µM); in test [4] (setting [8]) it was 128 µg/mL (≈ 273 µM).
